Assay results taken from ChEMBL document CHEMBL5532761, “Rosavin improves insulin resistance and alleviates hepatic and kidney damage via modulating the cGAS-STING pathway and autophagy signaling in HFD/STZ-induced T2DM animals” (2024).
The source made the active and inactive calls. The rule behind the calls is not given here.

How the values were obtained:
[1] = tested on: Rattus norvegicus; assay: (§1) Antidiabetic activity in high fat diet-STZ induced diabetic Wistar rat model assessed as insulin level in serum at 10 mg/kg, ip pretreated with high fat diet for 4 weeks followed by 8 hrs fasting after STZ administration and measured 4 weeks after compound treatment by ELISA (reference value: 16.53 +/- 1.14 microU/ml); type: functional
[2] = tested on: Rattus norvegicus; assay: (§2) Antidiabetic activity in high fat diet-STZ induced diabetic Wistar rat model assessed as HOMA-IR level at 10 mg/kg, ip pretreated with high fat diet for 4 weeks followed by 8 hrs fasting after STZ administration and measured 4 weeks after compound treatment (reference value: 21.51 +/- 2.17); type: functional
[3] = tested on: Rattus norvegicus; assay: Antidiabetic activity in high fat diet-STZ induced diabetic Wistar rat model assessed as creatinine level at 10 mg/kg, ip pretreated with high fat diet for 4 weeks followed by 8 hrs fasting after STZ administration and measured 4 weeks after compound treatment (reference value: 3.88 +/- 0.502 mg%); type: functional
[4] = tested on: Rattus norvegicus; assay: as §2, with “triglyceride” for “HOMA-IR”, “20” for “10”, “17.05” for “21.51”, “0.803 mmol/L)” for “2.17)”; type: functional
[5] = tested on: Rattus norvegicus; assay: as §2, with “LDL-cholesterol” for “HOMA-IR”, “20” for “10”, “6.54” for “21.51”, “0.918 mmol/L)” for “2.17)”; type: functional
[6] = tested on: Rattus norvegicus; assay: Antidiabetic activity in high fat diet-STZ induced diabetic Wistar rat model assessed as urine albumin to creatinine ratio at 20 mg/kg, ip pretreated with high fat diet for 4 weeks followed by 8 hrs fasting after STZ administration and measured 4 weeks after compound treatment (reference value: 87.13 +/- 9.75 mg/g); type: functional
[7] = tested on: Rattus norvegicus; assay: as §1, with “30” for “10”; type: functional
[8] = tested on: Rattus norvegicus; assay: (§3) Antidiabetic activity in high fat diet-STZ induced diabetic Wistar rat model assessed as HOMA-IR level at 30 mg/kg, ip pretreated with high fat diet for 4 weeks followed by 8 hrs fasting after STZ administration and measured 4 weeks after compound treatment (reference value: 21.51 +/- 2.17); type: functional
[9] = tested on: Rattus norvegicus; assay: as §3, with “HDL-cholesterol” for “HOMA-IR”, “0.688” for “21.51”, “0.288 mmol/L)” for “2.17)”; type: functional
[10] = tested on: Rattus norvegicus; assay: (§4) Antidiabetic activity in high fat diet-STZ induced diabetic Wistar rat model assessed as mean area percentage of TNF alpha in liver at 10 mg/kg, ip pretreated with high fat diet for 4 weeks followed by 8 hrs fasting after STZ administration and measured after 4 weeks of compound treatment by immunohistochemistry based microscopic analysis (reference value: 18.28 +/- 1.31 %); type: functional
[11] = tested on: Rattus norvegicus; assay: as §4, with “30” for “10”; type: functional
[12] = tested on: Rattus norvegicus; assay: as §4, with “TNFalpha” for “TNF alpha”, “kidney” for “liver”, “30” for “10”, “24” for “18.28”, “1.5” for “1.31”; type: functional
[13] = tested on: Rattus norvegicus; assay: (§5) Antidiabetic activity in ip dosed high fat diet-STZ induced diabetic Wistar rat model assessed as reduction of STING mRNA expression in adipose tissue pretreated with high fat diet for 4 weeks followed by 8 hrs fasting after STZ administration and measured 4 weeks after compound treatment by RT-qPCR analysis; type: functional, organism-based; conditions: dose 10-30 mg/kg
[14] = tested on: Rattus norvegicus; assay: as §5, with “DDX58” for “STING”; type: functional, organism-based; conditions: dose 10-30 mg/kg
[15] = tested on: Rattus norvegicus; assay: Antidiabetic activity in ip dosed high fat diet-STZ induced diabetic Wistar rat model assessed as reduction of miR-1976 expression in kidney pretreated with high fat diet for 4 weeks followed by 8 hrs fasting after STZ administration and measured 4 weeks after compound treatment by RT-qPCR analysis; type: functional, organism-based; conditions: dose 10-30 mg/kg
[16] = tested on: Rattus norvegicus; assay: as §5, with “miR-1976” for “STING mRNA”; type: functional, organism-based; conditions: dose 10-30 mg/kg
[17] = tested on: Rattus norvegicus; assay: (§6) Antidiabetic activity in high fat diet-STZ induced diabetic Wistar rat model assessed as intact hepatocytes by measuring reduction in persistent fatty changes at 20 mg/kg, ip pretreated with high fat diet for 4 weeks followed by 8 hrs fasting after STZ administration and measured 4 weeks after compound treatment by hematoxylin and eosin staining based microscopic analysis; type: functional, organism-based
[18] = tested on: Rattus norvegicus; assay: as §6, with “as” for “as intact hepatocytes by measuring”, “tubular degenerative” for “persistent fatty”, “changes in kidney” for “changes”, “10” for “20”; type: functional, organism-based
[19] = tested on: Rattus norvegicus; assay: as §6, with “as” for “as intact hepatocytes by measuring”, “inflammatory infiltrates in kidney” for “persistent fatty changes”; type: functional, organism-based
[20] = tested on: Rattus norvegicus; assay: as §6, with “as” for “as intact hepatocytes by measuring”, “inflammatory infiltrates in kidney” for “persistent fatty changes”, “30” for “20”; type: functional, organism-based
[21] = tested on: Rattus norvegicus; assay: Antidiabetic activity in high fat diet-STZ induced diabetic Wistar rat model assessed as increase in body weight at 10 to 30 mg/kg, ip pretreated with high fat diet for 4 weeks followed by 8 hrs fasting after STZ administration and measured 4 weeks after compound treatment; type: functional, organism-based; conditions: dose 10-30 mg/kg
[22] = tested on: Rattus norvegicus; assay: as §6, with “protection against vacuolar” for “intact hepatocytes by measuring reduction in persistent fatty”, “changes throughout hepatic lobules” for “changes”, “10” for “20”; type: functional, organism-based
[23] = tested on: Rattus norvegicus; assay: as §6, with “as” for “as intact hepatocytes by measuring”, “focal necrotic lesions in liver” for “persistent fatty changes”; type: functional, organism-based
[24] = tested on: Rattus norvegicus; assay: as §6, with “binucleated cells” for “intact hepatocytes by measuring reduction”, “liver” for “persistent fatty changes”, “30” for “20”; type: functional, organism-based
[25] = tested on: Rattus norvegicus; assay: as §6, with “preserved integrity of tubular epithelium” for “intact hepatocytes by measuring reduction”, “kidney” for “persistent fatty changes”, “20 to 30” for “20”; type: functional, organism-based; conditions: dose 20-30 mg/kg

Compound `O[C@@H]1[C@@H](O)[C@H](OC/C=C/c2ccccc2)O[C@H](CO[C@@H]2OC[C@H](O)[C@H](O)[C@H]2O)[C@H]1O` has an Activity [1] of 13.88 uU/ml, an Activity [2] of 7.81 and an Activity [3] of 2.12 mg%. It also gave an Activity [4] of 6.46 mmol/L, an Activity [5] of 2.13 mmol/L and an Activity [6] of 33.38 mg/g. It also gave an Activity [7] of 5.64 uU/ml, an Activity [8] of 1.73 and an Activity [9] of 1.39 mmol/L. The Activity [10] was 11.3%, the Activity [11] was 3.52% and the Activity [12] was 3.98%. The Activity [13] was “Dose-Dependent Effect”, the Activity [14] was “Dose-Dependent Effect” and the Activity [15] was “Dose-Dependent Effect”. The Activity [16] was “Dose-Dependent Effect”, the Activity [17] was “Active” and the Activity [18] was “inactive”. The Activity [19] was “Active”, the Activity [20] was “Active” and the Activity [21] was “Active”. For the same compound, the Activity [22] was “inactive”, the Activity [23] was “Active” and the Activity [24] was “Active”. The Activity [25] was “Active”.
